The text below walks through data of ChEMBL document CHEMBL5465560, “Selectivity Literature for EUbOPEN Chemogenomic Library” (2024).

Experiment [1] deals with Proto-oncogene tyrosine-protein kinase Src (Homo sapiens, UniProt P12931). Kind of experiment: Selectivity interaction (Kinase panel (Z-LYTE Assay)) EUB0001632a SRC. The note with it: at 10 µM.
Experiment [2] deals with Cyclin-dependent kinase 17 (Homo sapiens) (UniProt Q00537). Kind of experiment: Selectivity interaction (KinomeScan (DiscoverX)) EUB0000607a CDK17. The following applies: at 10 µM.
Experiment [3] deals with T1, Inhibitor of nuclear factor kappa-B kinase subunit alpha (Homo sapiens) (UniProt O15111).
T1 sequence (whole entry): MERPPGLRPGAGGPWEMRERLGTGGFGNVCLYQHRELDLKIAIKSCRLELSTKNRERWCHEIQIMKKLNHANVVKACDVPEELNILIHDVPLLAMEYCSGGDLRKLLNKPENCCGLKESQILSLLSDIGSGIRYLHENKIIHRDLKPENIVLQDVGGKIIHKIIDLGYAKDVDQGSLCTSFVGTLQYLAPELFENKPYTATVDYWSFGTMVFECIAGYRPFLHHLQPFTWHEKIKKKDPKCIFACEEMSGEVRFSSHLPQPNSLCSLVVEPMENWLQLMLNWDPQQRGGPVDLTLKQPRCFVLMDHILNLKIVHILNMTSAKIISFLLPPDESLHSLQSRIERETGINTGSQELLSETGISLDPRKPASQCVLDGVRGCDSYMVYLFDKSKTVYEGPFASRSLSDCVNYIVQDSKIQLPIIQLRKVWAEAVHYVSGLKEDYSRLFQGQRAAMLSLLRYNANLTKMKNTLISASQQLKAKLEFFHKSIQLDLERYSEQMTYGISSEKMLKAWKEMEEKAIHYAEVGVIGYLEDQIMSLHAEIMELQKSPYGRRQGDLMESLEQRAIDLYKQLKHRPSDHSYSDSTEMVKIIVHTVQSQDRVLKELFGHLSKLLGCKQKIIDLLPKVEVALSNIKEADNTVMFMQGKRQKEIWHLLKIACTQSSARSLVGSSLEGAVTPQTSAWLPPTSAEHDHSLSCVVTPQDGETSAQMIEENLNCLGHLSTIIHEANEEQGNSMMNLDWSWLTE
Description: Selectivity interaction (KinomeScan (DiscoverX)) EUB0000607a CHUK. The following applies: at 10 µM.

The target in experiment [4] is Casein kinase I isoform gamma-2 (Homo sapiens) (UniProt P78368). Description: Selectivity interaction (KinomeScan (DiscoverX)) EUB0000607a CSNK1G2. The following applies: at 10 µM.
The target in experiment [5] is T2, Interleukin-1 receptor-associated kinase 3 (Homo sapiens) (UniProt Q9Y616).
T2 sequence (whole entry): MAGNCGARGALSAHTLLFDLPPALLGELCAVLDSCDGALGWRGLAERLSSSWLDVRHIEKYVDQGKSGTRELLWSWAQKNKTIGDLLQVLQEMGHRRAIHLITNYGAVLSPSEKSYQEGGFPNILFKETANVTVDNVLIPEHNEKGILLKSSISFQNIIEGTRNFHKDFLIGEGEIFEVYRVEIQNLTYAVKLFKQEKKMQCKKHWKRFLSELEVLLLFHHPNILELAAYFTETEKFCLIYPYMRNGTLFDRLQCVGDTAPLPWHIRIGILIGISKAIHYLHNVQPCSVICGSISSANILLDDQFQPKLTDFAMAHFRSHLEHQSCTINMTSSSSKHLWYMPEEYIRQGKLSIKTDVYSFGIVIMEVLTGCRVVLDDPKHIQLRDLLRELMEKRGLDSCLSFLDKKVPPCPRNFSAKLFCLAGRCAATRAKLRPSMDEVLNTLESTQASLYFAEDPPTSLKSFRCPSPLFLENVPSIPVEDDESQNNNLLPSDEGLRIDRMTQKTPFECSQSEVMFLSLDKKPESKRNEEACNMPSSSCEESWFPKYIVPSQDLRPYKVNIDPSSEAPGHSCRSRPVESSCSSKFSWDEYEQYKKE
Description: Selectivity interaction (KinomeScan (DiscoverX)) EUB0000607a IRAK3. The following applies: at 10 µM.

The target in experiment [6] is Serine/threonine-protein kinase PAK 6 (Homo sapiens) (UniProt Q9NQU5). Kind of experiment: Selectivity interaction (SelectScreen profiling (Invitrogen)) EUB0000607a PAK6. The note with it: at 2 µM.
In experiment [7] the target is Serine/threonine-protein kinase tousled-like 2 (Homo sapiens) (UniProt Q86UE8). The note with it: at 10 µM.
Experiment [8] concerns the target Ribosomal protein S6 kinase alpha-5 (Homo sapiens) (UniProt O75582). Kind of experiment: Selectivity interaction (KinomeScan (DiscoverX)) EUB0000311b RPS6KA5. The following applies: at 1 µM.
Experiment [9] deals with Mitogen-activated protein kinase kinase kinase kinase 1 (Homo sapiens) (UniProt Q92918). Description: Selectivity interaction (KinomeScan (DiscoverX)) EUB0001079a MAP4K1. The note with it: at 1 µM.
In experiment [10] the target is Leucine-rich repeat serine/threonine-protein kinase 2 (Homo sapiens, UniProt Q5S007). The following applies: at 1 µM.
Experiment [11] deals with Casein kinase II subunit alpha (Homo sapiens, UniProt P68400). Kind of experiment: Selectivity interaction (ActivX KiNativ screen (kinase selectivity in THP-1 cell lysates)) EUB0000639a CSNK2A1. In kind it is subcellular. The note with it: lysate.
Experiment [12] deals with T3, Protein kinase C epsilon type (Homo sapiens) (UniProt Q02156).
T3 sequence (whole entry): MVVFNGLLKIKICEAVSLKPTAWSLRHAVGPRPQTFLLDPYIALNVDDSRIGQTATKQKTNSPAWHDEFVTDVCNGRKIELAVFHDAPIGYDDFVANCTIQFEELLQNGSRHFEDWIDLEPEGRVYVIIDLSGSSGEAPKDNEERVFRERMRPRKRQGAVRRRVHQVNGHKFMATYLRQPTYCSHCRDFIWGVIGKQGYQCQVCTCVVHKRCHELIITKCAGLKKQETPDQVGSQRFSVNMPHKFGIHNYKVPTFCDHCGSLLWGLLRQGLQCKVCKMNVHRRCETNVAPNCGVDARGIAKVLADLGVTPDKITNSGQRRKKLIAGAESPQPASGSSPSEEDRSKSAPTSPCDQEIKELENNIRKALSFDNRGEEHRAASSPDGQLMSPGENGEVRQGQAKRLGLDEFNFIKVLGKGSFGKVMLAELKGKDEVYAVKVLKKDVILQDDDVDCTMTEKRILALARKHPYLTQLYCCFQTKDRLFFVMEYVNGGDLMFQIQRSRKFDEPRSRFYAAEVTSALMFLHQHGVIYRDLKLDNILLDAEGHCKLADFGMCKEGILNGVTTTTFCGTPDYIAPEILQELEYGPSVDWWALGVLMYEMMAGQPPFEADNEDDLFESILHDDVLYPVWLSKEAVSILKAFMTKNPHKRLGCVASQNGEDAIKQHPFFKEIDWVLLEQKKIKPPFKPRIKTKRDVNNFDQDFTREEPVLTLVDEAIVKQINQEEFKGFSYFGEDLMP
Kind of experiment: Selectivity interaction (Kinase panel (Invitrogen)) EUB0000639a PRKCE. The note with it: at 200 nM.

Experiment [13] concerns the target Cyclin-dependent kinase 15 (Homo sapiens) (UniProt Q96Q40). Description: Selectivity interaction (KinomeScan (DiscoverX)) EUB0000618a CDK15. The following applies: at 10 µM.
Experiment [14] addresses MAP kinase-activated protein kinase 3 (Homo sapiens) (UniProt Q16644). Description: Selectivity interaction (Upstate Kinase Profiler service (Millipore)) EUB0000056c MAPKAPK3. The note with it: at 1 µM.

Chain of Casein kinase II subunit alpha (P68400 whole entry, looked up): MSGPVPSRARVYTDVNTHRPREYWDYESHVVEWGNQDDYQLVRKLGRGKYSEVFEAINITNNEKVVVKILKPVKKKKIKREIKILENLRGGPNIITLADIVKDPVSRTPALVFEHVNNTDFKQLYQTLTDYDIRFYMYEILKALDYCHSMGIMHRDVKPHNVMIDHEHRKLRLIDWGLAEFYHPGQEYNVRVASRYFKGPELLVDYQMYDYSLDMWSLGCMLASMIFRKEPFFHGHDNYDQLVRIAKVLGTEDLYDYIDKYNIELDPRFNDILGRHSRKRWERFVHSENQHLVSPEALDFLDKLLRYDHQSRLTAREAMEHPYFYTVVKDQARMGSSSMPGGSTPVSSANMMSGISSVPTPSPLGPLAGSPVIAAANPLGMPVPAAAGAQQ
Chain of Serine/threonine-protein kinase tousled-like 2 (Homo sapiens) (Q86UE8 whole entry, looked up): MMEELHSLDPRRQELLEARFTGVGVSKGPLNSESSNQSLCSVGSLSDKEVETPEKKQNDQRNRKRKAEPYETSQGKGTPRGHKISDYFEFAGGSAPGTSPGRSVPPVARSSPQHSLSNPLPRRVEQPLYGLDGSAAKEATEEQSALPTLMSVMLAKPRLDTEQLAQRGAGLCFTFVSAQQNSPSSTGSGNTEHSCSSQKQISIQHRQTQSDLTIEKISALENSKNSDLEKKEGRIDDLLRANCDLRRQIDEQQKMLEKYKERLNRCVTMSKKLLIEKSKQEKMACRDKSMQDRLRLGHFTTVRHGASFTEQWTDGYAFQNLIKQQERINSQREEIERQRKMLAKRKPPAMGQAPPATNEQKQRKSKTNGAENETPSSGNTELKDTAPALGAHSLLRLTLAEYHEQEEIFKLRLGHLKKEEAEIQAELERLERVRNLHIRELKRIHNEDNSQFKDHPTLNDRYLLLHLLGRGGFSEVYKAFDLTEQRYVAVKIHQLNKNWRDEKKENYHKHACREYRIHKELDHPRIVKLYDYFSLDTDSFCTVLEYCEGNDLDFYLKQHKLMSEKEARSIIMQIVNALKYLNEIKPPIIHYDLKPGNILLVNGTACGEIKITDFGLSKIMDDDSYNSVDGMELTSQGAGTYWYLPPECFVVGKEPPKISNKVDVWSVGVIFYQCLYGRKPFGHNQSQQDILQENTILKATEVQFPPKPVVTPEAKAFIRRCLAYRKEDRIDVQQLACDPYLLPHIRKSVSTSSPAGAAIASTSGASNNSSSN
Chain of Serine/threonine-protein kinase PAK 6 (Homo sapiens) (Q9NQU5 whole entry, looked up): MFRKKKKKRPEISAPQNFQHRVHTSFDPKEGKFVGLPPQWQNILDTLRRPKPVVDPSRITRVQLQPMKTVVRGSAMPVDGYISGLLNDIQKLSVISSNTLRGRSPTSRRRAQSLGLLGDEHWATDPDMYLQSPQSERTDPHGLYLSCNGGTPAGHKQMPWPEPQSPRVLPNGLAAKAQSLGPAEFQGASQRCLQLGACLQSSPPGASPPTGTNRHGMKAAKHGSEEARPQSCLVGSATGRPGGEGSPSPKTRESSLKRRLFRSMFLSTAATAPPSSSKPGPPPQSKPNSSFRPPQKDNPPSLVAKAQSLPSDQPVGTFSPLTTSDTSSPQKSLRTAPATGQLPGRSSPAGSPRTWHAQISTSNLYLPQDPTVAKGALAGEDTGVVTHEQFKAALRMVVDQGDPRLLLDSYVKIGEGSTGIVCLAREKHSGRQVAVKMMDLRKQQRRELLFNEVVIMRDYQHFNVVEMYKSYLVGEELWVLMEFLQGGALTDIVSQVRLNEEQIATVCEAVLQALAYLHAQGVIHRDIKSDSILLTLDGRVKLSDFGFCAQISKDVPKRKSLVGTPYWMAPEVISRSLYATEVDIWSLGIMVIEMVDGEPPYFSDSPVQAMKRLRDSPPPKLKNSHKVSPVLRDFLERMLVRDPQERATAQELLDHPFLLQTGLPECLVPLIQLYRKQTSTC
Chain of MAP kinase-activated protein kinase 3 (Homo sapiens) (Q16644 whole entry, looked up): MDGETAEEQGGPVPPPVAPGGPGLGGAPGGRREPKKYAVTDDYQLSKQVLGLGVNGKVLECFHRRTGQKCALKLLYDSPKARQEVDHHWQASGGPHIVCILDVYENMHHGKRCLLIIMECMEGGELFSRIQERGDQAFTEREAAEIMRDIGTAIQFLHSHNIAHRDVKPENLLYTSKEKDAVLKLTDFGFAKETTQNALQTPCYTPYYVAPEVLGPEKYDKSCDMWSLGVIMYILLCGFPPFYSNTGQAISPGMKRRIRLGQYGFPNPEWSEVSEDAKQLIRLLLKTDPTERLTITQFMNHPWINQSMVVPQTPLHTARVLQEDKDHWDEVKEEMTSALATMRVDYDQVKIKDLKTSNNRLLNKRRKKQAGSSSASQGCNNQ
Chain of Mitogen-activated protein kinase kinase kinase kinase 1 (Homo sapiens) (Q92918 whole entry, looked up): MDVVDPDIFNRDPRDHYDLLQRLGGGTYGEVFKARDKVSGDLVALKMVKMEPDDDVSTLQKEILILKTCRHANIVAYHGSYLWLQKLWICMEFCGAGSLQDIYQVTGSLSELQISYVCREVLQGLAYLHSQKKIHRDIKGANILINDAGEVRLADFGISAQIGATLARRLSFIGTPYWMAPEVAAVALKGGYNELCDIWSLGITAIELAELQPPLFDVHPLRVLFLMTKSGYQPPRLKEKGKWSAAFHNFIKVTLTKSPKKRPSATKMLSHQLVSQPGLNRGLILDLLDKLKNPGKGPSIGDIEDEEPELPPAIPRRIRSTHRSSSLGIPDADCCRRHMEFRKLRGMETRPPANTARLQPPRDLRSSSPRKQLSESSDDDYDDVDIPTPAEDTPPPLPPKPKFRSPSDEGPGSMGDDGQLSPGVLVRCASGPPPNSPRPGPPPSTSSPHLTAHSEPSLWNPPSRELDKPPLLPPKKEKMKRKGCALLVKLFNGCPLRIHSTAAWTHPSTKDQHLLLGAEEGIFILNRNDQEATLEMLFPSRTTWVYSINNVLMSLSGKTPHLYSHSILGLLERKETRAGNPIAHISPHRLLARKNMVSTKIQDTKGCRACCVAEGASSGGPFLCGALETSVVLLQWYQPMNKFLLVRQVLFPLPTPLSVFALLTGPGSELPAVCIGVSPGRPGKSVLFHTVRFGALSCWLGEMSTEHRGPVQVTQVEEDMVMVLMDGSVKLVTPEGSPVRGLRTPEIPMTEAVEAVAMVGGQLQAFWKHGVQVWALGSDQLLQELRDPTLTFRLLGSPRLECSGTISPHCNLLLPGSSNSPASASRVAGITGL
Chain of Proto-oncogene tyrosine-protein kinase Src (P12931 2-536 limits assumed): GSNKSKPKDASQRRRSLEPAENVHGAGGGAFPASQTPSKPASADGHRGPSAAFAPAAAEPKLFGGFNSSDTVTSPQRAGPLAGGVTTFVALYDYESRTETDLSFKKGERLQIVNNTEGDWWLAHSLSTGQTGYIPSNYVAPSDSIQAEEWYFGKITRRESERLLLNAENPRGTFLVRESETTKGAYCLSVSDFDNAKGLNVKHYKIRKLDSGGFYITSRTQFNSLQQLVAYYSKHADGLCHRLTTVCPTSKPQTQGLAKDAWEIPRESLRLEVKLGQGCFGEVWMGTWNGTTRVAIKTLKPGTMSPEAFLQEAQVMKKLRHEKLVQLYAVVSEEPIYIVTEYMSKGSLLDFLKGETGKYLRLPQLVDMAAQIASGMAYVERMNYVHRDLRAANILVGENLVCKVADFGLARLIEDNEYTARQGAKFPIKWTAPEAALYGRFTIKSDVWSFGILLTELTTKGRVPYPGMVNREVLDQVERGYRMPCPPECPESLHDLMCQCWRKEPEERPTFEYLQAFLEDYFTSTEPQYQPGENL
Chain of Casein kinase I isoform gamma-2 (Homo sapiens) (P78368 whole entry, looked up, canonical isoform): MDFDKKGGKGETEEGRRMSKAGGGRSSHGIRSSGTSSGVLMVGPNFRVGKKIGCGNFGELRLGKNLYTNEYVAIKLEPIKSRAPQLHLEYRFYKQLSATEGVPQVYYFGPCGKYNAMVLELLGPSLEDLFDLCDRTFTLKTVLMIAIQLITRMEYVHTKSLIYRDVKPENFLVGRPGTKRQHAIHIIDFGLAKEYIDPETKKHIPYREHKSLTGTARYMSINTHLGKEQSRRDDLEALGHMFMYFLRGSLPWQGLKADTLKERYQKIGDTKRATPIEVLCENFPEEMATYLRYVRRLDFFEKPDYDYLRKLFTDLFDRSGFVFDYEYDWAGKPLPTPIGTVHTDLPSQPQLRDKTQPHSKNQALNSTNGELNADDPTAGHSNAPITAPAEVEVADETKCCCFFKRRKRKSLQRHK
Chain of Ribosomal protein S6 kinase alpha-5 (Homo sapiens) (O75582 whole entry, looked up): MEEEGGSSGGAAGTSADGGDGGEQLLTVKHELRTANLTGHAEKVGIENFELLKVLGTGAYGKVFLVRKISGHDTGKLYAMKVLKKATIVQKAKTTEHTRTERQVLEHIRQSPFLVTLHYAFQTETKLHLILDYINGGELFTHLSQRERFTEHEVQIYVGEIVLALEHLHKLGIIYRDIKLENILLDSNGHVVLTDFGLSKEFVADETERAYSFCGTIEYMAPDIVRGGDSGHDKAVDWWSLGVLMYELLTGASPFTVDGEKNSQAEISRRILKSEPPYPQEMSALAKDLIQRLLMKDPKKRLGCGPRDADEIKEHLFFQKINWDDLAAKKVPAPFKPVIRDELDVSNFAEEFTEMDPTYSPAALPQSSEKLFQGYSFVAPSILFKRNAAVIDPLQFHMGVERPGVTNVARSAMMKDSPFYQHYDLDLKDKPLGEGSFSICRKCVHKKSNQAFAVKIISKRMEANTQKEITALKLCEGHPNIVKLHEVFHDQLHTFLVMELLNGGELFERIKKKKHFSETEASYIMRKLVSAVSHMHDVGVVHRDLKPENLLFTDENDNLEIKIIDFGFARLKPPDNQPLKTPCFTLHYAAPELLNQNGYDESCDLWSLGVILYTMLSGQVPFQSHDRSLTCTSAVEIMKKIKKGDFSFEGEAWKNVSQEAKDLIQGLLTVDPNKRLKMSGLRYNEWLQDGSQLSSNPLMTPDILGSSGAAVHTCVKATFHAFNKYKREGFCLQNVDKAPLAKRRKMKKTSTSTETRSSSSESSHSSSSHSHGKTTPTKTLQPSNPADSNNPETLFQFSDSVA

In [1], `Cn1cc(-n2cnc3c(NCc4nc5cc(Cl)c(Cl)cc5[nH]4)nc(N4CCOCC4)nc32)cn1` gave a % of control of 12.1%.

Turning to `CNC(=O)Nc1ccc(-c2nc(N3CC4CCC(C3)O4)c3cnn(C4CCC5(CC4)OCCO5)c3n2)cc1`, the % of control amounted to 100% in [2], 100% in experiment [3], 95% in experiment [4] and 100% in [5]. For the same compound, the % of inhibition in [6] was 9%. In [7], `Cc1cc([C@@H](C)Nc2ccccc2C(=O)O)c2nc(N3CCOCC3)cc(=O)n2c1` [AZD-6482] displayed a % of control of 88%. The compound `CCc1ccccc1C(=O)Nc1n[nH]c2c(C)c(F)c(C3C(C#N)=C(C)N(C)C(C)=C3C#N)cc12` [BAY-3827] yielded a % of control in experiment [8] of 1%. `Nc1cnc(N2CCc3cc(S(=O)(=O)Nc4c(F)cc(Cl)cc4F)cc(N4CCCC4=O)c32)nc1` [TP-020n]: the % of control in experiment [9] is 83%. In turn, `N#Cc1cccc(-c2c[nH]c3ncnc(N4CCOCC4)c23)c1` displayed a % of control in experiment [10] of 43%. As to `CC[C@@H]1[C@H](F)C(=O)N[C@@H]1COc1nccc2cc(C(N)=O)c(OC)cc12` [ZIMLOVISERTIB], the % of inhibition in experiment [11] (at 1 µM) is 25.8%; in experiment [11] (at 5 µM) it was -6.9%; in [12], -12.5%.

On to `O[C@H]1CC[C@H](Nc2ncc3nc(Nc4c(F)cc(F)cc4F)n([C@H]4CCOC4)c3n2)CC1`, for which, in [13], the % of control came out at 100%. With `Cc1ccc(-c2ccc3c(ccc4sc5c(c43)NC[C@@H](C)NC5=O)n2)cn1`, the % of inhibition in experiment [14] is 89%.
